Measured values published in patent EP0286316A1, “1,2,4-Trioxane Derivatives” (Jefford, Charles W., priority 1987, dated 1988).

Experiments:
[1] = test system: Plasmodium falciparum chloroquine-resistant clone: Indochina-W2 (IndCh-W2); test: in vitro anti-malarial activity, semiautomated microdilution technique, chloroquine-resistant clone; format: cell-based; settings: for I-QHS: index of activity (IC50) relative to Qinghaosu under the same conditions; for I-CHLQ: index of activity (IC50) relative to chloroquine under the same conditions
Source text: (§1) Determination of anti-malarial activity of the compounds was effected according to the methods published by R E Desjardins et al and W K Milhous et al (Desjardins, R.E., C.J. Cranfield, D.E. Haynes, and J.D. Chulay. 1979. Quantitative assessment of anitmalarial activity in vitro by a semiautomated microdilution technique. Antimicrob. Agents Chemother. 16:710-718. Milhous, W.K., N.F. Weatherley, J.H. Bowdre, and R.E. Desjardins. 1985. In vitro activities of and mechanisms of resistance to antifol antimalarials. Antimicrob. Agents Chemother. 27:525-530). For such determinations, the following clones of Plasmodium falciparum were used: chloroquine-resistant clone: Indochina-W2 (IndCh-W2) chloroquine-sensitive clone: Sierra Leone-D6 (SL-D6) The activity measured was then compared as indexes under the same conditions to the activity of Qinghaosu (I-QHS) and chloroquine (I-CHLQ), respectively. The indexes (I) provide a measure of the activity of the 1,2,4-trioxane derivatives tested in relation to the activity of the known anti-malarial substances.

[2] = test system: Plasmodium falciparum chloroquine-sensitive clone: Sierra Leone-D6 (SL-D6); test: in vitro anti-malarial activity, semiautomated microdilution technique, chloroquine-sensitive clone; format: cell-based; settings: clone S6-D6; for I-QHS: index of activity (IC50) relative to Qinghaosu under the same conditions; for I-CHLQ: index of activity (IC50) relative to chloroquine under the same conditions
Source text: as §1

[3] = test system: mefloquine-resistant clones of Plasmodium falciparum (MEF-W2); test: in vitro anti-malarial activity, mefloquine-resistant clones; format: cell-based; settings: index of activity (IC50) relative to Qinghaosu; clone MEF-W2
Source text: as §1
Certain derivatives of 1,2,4-trioxane listed below were tested against mefloquine-resistant clones of Plasmodium falciparum (MEF-W2), according to the method previously cited.

[4] = test system: mixed lymphocyte reaction; test: immunomodulatory activity (in vitro mitogenic assay; mixed lymphocyte reaction); format: cell-based
Procedure: Several of the compounds mentioned in Examples 1 to 17 were also tested for immunomodulatory activity (in vitro mitogenic assay; mixed lymphocyte reaction).

[5] = test system: chloroquine-resistant strains of P. falciparum; settings: cited from earlier work

SMILES	I-QHS [1]	I-QHS [2]	I-CHLQ [1]	I-CHLQ [2]	I-QHS [3]	immunomodulatory activity [4]	activity against chloroquine-resistant strains of P. falciparum [5]
O=C1CCC2(CC1)OO[C@]1(c3ccccc3)CC(c3ccccc3)=C[C@@H]1O2 (racemic) [Compound 17]	2.1	1.06					
C1=C(c2ccccc2)C[C@@]2(c3ccccc3)OOC3(CCC4(CC3)OCCO4)O[C@@H]12 (racemic) [Compound 20]	0.67	0.39					
CC1(C)OO[C@]2(c3ccccc3)CC(c3ccccc3)=C[C@@H]2O1 [Compound 1]	0.13	0.18	5.7	0.20	0.15		
CC1(C)OO[C@]2(c3ccccc3)C=C(c3ccccc3)[C@@H](O)[C@@H]2O1 [Compound 2]	0.12	0.25	5.4	0.27	0.10		
C1=C(c2ccccc2)C[C@@]2(c3ccccc3)OOC3(CCCC3)O[C@@H]12 [Compound 4]	2.1	0.79	12.2	0.82			
C1=C(c2ccccc2)C[C@@]2(c3ccccc3)OOC3(CCCCC3)O[C@@H]12 [Compound 5]	0.26	0.20	1.5	0.20			
CC1(C)OO[C@]2(c3ccccc3)C=C(c3ccccc3)[C@@H](OC(=O)c3ccccc3F)[C@@H]2O1 [Compound 7]	0.04	0.05	1.6	0.06			
CC(C)OC(=O)O[C@@H]1C(c2ccccc2)=C[C@@]2(c3ccccc3)OOC(C)(C)O[C@@H]12 [Compound 8]	0.10	0.16	4.2	0.18			
CC1(C)OO[C@]2(c3ccccc3)C=C(c3ccccc3)C(=O)[C@@H]2O1 [Compound 9]	0.08	0.20	3.5	0.21			
CC(C)CC(=O)O[C@@H]1C(c2ccccc2)=C[C@@]2(c3ccccc3)OOC(C)(C)O[C@@H]12 [Compound 10]	0.04	0.09	1.7	0.10			
O[C@@H]1C(c2ccccc2)=C[C@@]2(c3ccccc3)OOC3(CCCC3)O[C@@H]12 [Compound 11]	4.7	1.85	73.8	1.16			
C1=C(c2ccccc2)C[C@@]2(c3ccccc3)OOC3(CCOCC3)O[C@@H]12 [Compound 12]	18.7	1.10	295.3	0.67		most important activity	
OO[C@@H]1C(c2ccccc2)=C[C@@]2(c3ccccc3)OOC3(CCCCC3)O[C@@H]12 [Compound 13]	2.2	1.47	33.9	0.93			
O=C1C(c2ccccc2)=C[C@@]2(c3ccccc3)OOC3(CCCCC3)O[C@@H]12 [Compound 15]	3.5	1.93					
O[C@@H]1C(c2ccccc2)=C[C@@]2(c3ccccc3)OOC3(CCCCC3)O[C@@H]12 [Compound 16]	1.6	0.49					
CCOC(=O)CCCC1(C)OO[C@]2(c3ccccc3)CC(c3ccccc3)=C[C@@H]2O1 (stereo partly drawn) [Compound 18]	0.09	0.28					
CCC1(C)OO[C@]2(c3ccccc3)CC(c3ccccc3)=C[C@@H]2O1 (stereo partly drawn) [Compound 21]	0.075	0.36					
C[C@@H]1CC[C@H]2[C@@H](C)C(=O)O[C@@H]3O[C@@]4(C)CC[C@@H]1[C@]32OO4 [Qinghaosu]							remarkably active
